Test results as given in patent US12545637B2, “Extrahepatic targeted cationic lipid compound with high efficiency and low toxicity and its composition” (BEIJING YOUCARE KECHUANG PHARMACEUTICAL TECHNOLOGY CO., LTD., priority 2023, dated 2026).
Where “and” joins values, the source holds several entries; their conditions need not be identical. Identical values can stand only once.

Assays:
293T cells [1] = assay: Cell transfection test of LNP formulation of eGFP-mRNA (optimization of preparation conditions); format: cell-based
Description: The cationic lipid compound YK-407 synthesized in Example 1 was dissolved in ethanol with DSPC (AVT (Shanghai) Pharmaceutical Technology Co., Ltd.), cholesterol (AVT (Shanghai) Pharmaceutical Technology Co., Ltd.) and DMG-PEG2000 according to a molar ratio of 49:10:39.5:1.5, respectively, to prepare an ethanol lipid solution. The ethanol lipid solution was quickly added to citrate buffer (pH=4-5) by ethanol injection method, and vortexed for 30s for later use. eGFP-mRNA was diluted in citrate buffer (pH=4-5) to give an aqueous mRNA solution. A certain volume of liposome solution and mRNA aqueous solution were used to prepare liposomes at weight ratios of total lipids to mRNA of 5:1, 10:1, 15:1, 20:1, 30:1 and 35:1, respectively. The mixtures were sonicated at 25° C. for 15 min (with an ultrasonic frequency of 40 kHz and an ultrasonic power of 800 W). The resulted liposomes were diluted to 10 times volume with PBS, and then ultrafiltered with a 300KDa ultrafiltration tube to remove ethanol. Then the volume was fixed to a certain volume with PBS to give an LNP formulation encapsulating eGFP-mRNA using cationic lipid YK-407/DSPC/cholesterol/DMG-PEG2000 (49:10:39.5:1.5 in molar percentage).
The LNP formulation encapsulating eGFP-mRNA was prepared according to the method in 1, wherein the molar ratios of cationic lipid YK-407 to neutral lipid DSPC were 1:1, 3:1, 3.5:1, 4:1, 4.5:1, 4.9:1, 10:1, 15:1 and 20:1.
The LNP formulation encapsulating eGFP-mRNA was prepared according to the method in 1, wherein the cationic lipid in the carrier was YK-407, and the molar ratios of the polymer-conjugated lipid DMG-PEG2000 to the carrier were 0.5%, 1.5%, 3.5%, 5%, 10% and 15%, respectively.
The LNP formulation encapsulating eGFP-mRNA was prepared according to the method in 1, wherein the molar ratios of cationic lipid YK-407, neutral lipid DSPC, structured lipid cholesterol and polymer-conjugated lipid DMG-PEG2000 were 75:5:15:5, 49:10:39.5:1.5, 45:10:43.5:1.5, 45:25:20:10, 40:10:48.5:1.5, 35:10:53.5:1.5 and 25:5:65:5, respectively.
Cell recovery and passage: 293T cells were recovered, cultured in a culture dish, and passaged to the required number of cells.
Seeding plate: The cells in the culture dish were digested and counted. Cells were spread in a 96-well plate at 10,000 cells per well and in a 12-well plate at 150,000 cells per well. Cells were cultured overnight until the cells adhered to the wall.
Cell transfection test: The LNP formulation containing 1.5 μg of eGFP-mRNA prepared in Example 2 (the cationic lipid in the carrier was YK-407) and the Lipofectamin 3000 formulation of eGFP-mRNA were added respectively to the cell culture medium of the 12-well plate, and further incubated for 24 hours. The transfection efficiency of different samples was then investigated according to the fluorescence intensity by observing with a fluorescence microscope.

[2] = Particle size and polydispersity index (PDI) of lipid nanoparticles by dynamic light scattering; format: physicochemical
Description: The particle size and polydispersity index (PDI) were determined by dynamic light scattering using Malvern laser particle size analyzer.
10 μL of the liposome solution was weighed, diluted to 1 mL with RNase-free deionized water, and added to the sample pool. Each sample was measured in triplicate. The measurement conditions were: […] scattering angle, and 25° C.

female BALB/C mice = assay: In vivo imaging in mice of Fluc-mRNA LNP formulations (mRNA expression and duration)
Summary of the method: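 Female BALB/C mice (4-6 weeks, 17-19 g) received LNP carrying […] Fluc-mRNA intramuscularly. At 6h, 24 h, 48h and 7d, fluorescent imaging substrate was given intraperitoneally and after 5 minutes average radiance, as a measure of expressed protein, was imaged on an IVIS Spectrum system.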

293T cells [3] = assay: Fluorescent detection of Fluc-mRNA (cell transfection efficiency of LNP formulations); format: cell-based
293T cells [4] = assay: as above; format: cell-based; remark: listed apart in the source

For `CCCCCCCCCCCOC(=O)CCCN(CCO)CCN(CCO)CCCCCC(=O)OC(CCCCCCCC)CCCCCCCC` [YK-407], the “transfection efficiency at different molar ratios of polymer-conjugated lipid DMG-PEG2000 to carrier” value (293T cells [1]; 0.5% to 15%) was “the transfection efficiency was the highest when the molar ratio was 1.5%”, the “transfection effect at different molar ratios of cationic lipid, neutral lipid, structured lipid and polymer-conjugated lipid” value (293T cells [1]; 75:5:15:5 to 25:5:65:5) was “the transfection effect was the best when the ratio was 40:10:48.5:1.5” and the “transfection efficiency at different molar ratios of cationic lipid to neutral lipid DSPC” value (293T cells [1]; ratios 1:1 to 20:1) was “the transfection efficiency was the highest at the molar ratio of cationic lipid to neutral lipid of 4:1”. The “transfection effect at different weight ratios of carrier to mRNA” value (293T cells [1]; ratios 5:1, 10:1, 15:1, 20:1, 30:1 and 35:1) was “the ratio of 15:1 had the best transfection effect”, the PDI ([2]; LNP formulation of the cationic lipid, 25° C.) was 16.6% and the Particle size ([2]; LNP formulation of the cationic lipid/DSPC/cholesterol/DMG-PEG2000 49:10:39.5:1.5, 25° C.) was 162 nm. The “average radiation intensity, times that of ALC-0315” value (female BALB/C mice; 6 h) was 4.76, the “average radiation intensity, times that of HHMA” value (female BALB/C mice; 6 h) was 6.05 and the “average radiation intensity, times that of SM-102” value (female BALB/C mice; 6 h) was 5.79. The “average radiation intensity, times that of compound 21” value (female BALB/C mice; 6 h) was 6.66, the “average radiation intensity, times that of compound 23” value (female BALB/C mice; 6 h) was 6.88 and the “expression amount in mice, times that of YK-415” value (shortened to “expression amount … of YK-415”) (female BALB/C mice; 6 h) was 33.96. For the same compound, the “expression amount in mice, times that of YK-417” value (“expression amount … of YK-417” below) (female BALB/C mice; 6 h) was 66.16, the “average radiation intensity, times that of ALC-0315” value (female BALB/C mice; 24 h) was 10.62 and the “average radiation intensity, times that of HHMA” value (female BALB/C mice; 24 h) was 16.80. The “average radiation intensity, times that of SM-102” value (female BALB/C mice; 24 h) was 16.34, the “average radiation intensity, times that of compound 21” value (female BALB/C mice; 24 h) was 18.15 and the “average radiation intensity, times that of compound 23” value (female BALB/C mice; 24 h) was 19.97. For the same compound, the “expression amount … of YK-415” value (female BALB/C mice; 24 h) was 31.25, the “expression amount … of YK-417” value (female BALB/C mice; 24 h) was 100.86 and the “mRNA expression in mice, times that of YK-411” value (from here on “mRNA expression in mice”) (female BALB/C mice; 24 h) was 996.97 and 1000. For the same compound, the “average radiation intensity, times that of ALC-0315” value (female BALB/C mice; 48 h) was 22 and 22.06, the “average radiation intensity, times that of HHMA” value (female BALB/C mice; 48 h) was 27 and 26.55 and the “average radiation intensity, times that of SM-102” value (female BALB/C mice; 48 h) was 27 and 26.93. The “average radiation intensity, times that of compound 21” value (female BALB/C mice; 48 h) was 28 and 28.07, the “average radiation intensity, times that of compound 23” value (female BALB/C mice; 48 h) was 27 and 26.89 and the “expression amount … of YK-415” value (female BALB/C mice; 48 h) was 56.07. The “expression amount … of YK-417” value (female BALB/C mice; 48 h) was 125.66 and 120, the “mRNA expression in mice” value (female BALB/C mice; 48 h) was 907.99 and the “average radiation intensity, times that of ALC-0315” value (female BALB/C mice; 7 d) was 6.90. For the same compound, the “average radiation intensity, times that of HHMA” value (female BALB/C mice; 7 d) was 8.13, the “average radiation intensity, times that of SM-102” value (female BALB/C mice; 7 d) was 7.20 and the “average radiation intensity, times that of compound 21” value (female BALB/C mice; 7 d) was 7.59. For the same compound, the “average radiation intensity, times that of compound 23” value (female BALB/C mice; 7 d) was 7.93, the “expression amount … of YK-415” value (female BALB/C mice; 7 d) was 11.98 and the “expression amount … of YK-417” value (female BALB/C mice; 7 d) was 21.20 and 20. The “mRNA expression in mice” value (female BALB/C mice; 7 d) was 100.85 and 100, the “average radiation intensity, 6 h” value (female BALB/C mice; Fluc-mRNA LNP intramuscular, 6 h after administration) was 4001500 and the “average radiation intensity, 24 h” value (female BALB/C mice; Fluc-mRNA LNP intramuscular, 24 h after administration) was 2015870. The “average radiation intensity, 48 h” value (female BALB/C mice; Fluc-mRNA LNP intramuscular, 48 h after administration) was 885288, the “average radiation intensity, 7 d” value (female BALB/C mice; Fluc-mRNA LNP intramuscular, 7 d after administration) was 48410 and the “Relative light unit (RLU)” value (293T cells [3]; LNP with 0.3 μg Fluc-mRNA, 96-well plate, 24 hours) was 20385506 RLU. The “cell transfection efficiency, times that of YK-415” value (293T cells [3]; ratio vs YK-415) was 68.40, the “cell transfection efficiency, times that of YK-417” value (293T cells [3]; ratio vs YK-417) was 173.81 and 170 and the “cell transfection efficiency, times that of YK-418” value (293T cells [3]; ratio vs YK-418) was 183.24 and 180. The “cell transfection efficiency, times that of YK-424” value (293T cells [3]; ratio vs YK-424) was 7.07, the “RLU value, times that of compound 21” value (293T cells [3]; ratio vs compound 21) was 13.49 and 13 and the “RLU value, times that of compound 23” value (293T cells [3]; ratio vs compound 23) was 14.53 and 15. The “RLU value, times that of ALC-0315” value (293T cells [4]; ratio vs ALC-0315) was 9.31, the “RLU value, times that of HHMA” value (293T cells [4]; ratio vs HHMA) was 9.81 and the “RLU value, times that of Lipofectamine 3000” value (293T cells [4]; ratio vs Lipofectamine 3000) was 16.98. The “RLU value, times that of YK-009” value (293T cells [4]; ratio vs YK-009) was 3.96, the “RLU value, times that of YK-405” value (293T cells [4]; ratio vs YK-405) was 6.37 and the “RLU value, times that of YK-406” value (293T cells [4]; ratio vs YK-406) was 260.51. For the same compound, the “RLU value, times that of YK-408” value (293T cells [4]; ratio vs YK-408) was 13.83, the “RLU value, times that of YK-409” value (293T cells [4]; ratio vs YK-409) was 30.43 and the “RLU value, times that of YK-410” value (293T cells [4]; ratio vs YK-410) was 49.98. The “cell transfection efficiency, times that of YK-412” value (293T cells [4]; ratio vs YK-412) was 6.05, the “cell transfection efficiency, times that of YK-413” value (293T cells [4]; ratio vs YK-413) was 14.80 and the “cell transfection efficiency, times that of YK-414” value (293T cells [4]; ratio vs YK-414) was 45.90. For the same compound, the “cell transfection efficiency, times that of YK-416” value (293T cells [4]; ratio vs YK-416) was 5.13, the “cell transfection efficiency, times that of YK-419” value (293T cells [4]; ratio vs YK-419) was 6.44 and the “cell transfection efficiency, times that of YK-420” value (293T cells [4]; ratio vs YK-420) was 5.07. For the same compound, the “cell transfection efficiency, times that of YK-421” value (293T cells [4]; ratio vs YK-421) was 43.69.
